Patent US6617350B2, “Inhibitors of aspartyl protease” (priority 1999, dated 2003)
Read-outs that look alike come from different tables or passages of the source.

Legend:
HIV-1 (strain IIIB) = experiment: microbe, parasite or virus in culture; type: cell-based; conditions: anti-viral potency in MT-4 cells, read-out: IC50
HIV-1 protease = HIV-1 protease (Human immunodeficiency virus type 1 group M subtype B, UniProt P04585); experiment: biochemical
[1] = Human immunodeficiency virus 1, IIIB, MT4, Table 12
[2] = Table 12, HIV-1 protease, read-out: Ki

Structure (SMILES) | IC50 (HIV-1 (strain IIIB); [1]) [µM] | Ki (HIV-1 protease; [2]) [µM] | IC50 (HIV-1 (strain IIIB); Table 12) [µM] | Ki (HIV-1 protease) [µM]
COc1ccc(S(=O)(=O)N(C=C(C#N)C#N)C[C@@H](O)[C@H](Cc2ccccc2)NC(=O)OC(C)(C)C)cc1 [Compound 113] | 0.5 to 1 | 0.01 to 0.1 | – | –
COc1ccc(S(=O)(=O)N(CCC#N)C[C@@H](O)[C@H](Cc2ccccc2)NC(=O)O[C@H]2CO[C@H]3OCC[C@H]32)cc1 [Compound 124, {(1S,2R)-3-[(4-methoxybenzenesulfonyl)-(2-cyanoethyl)-amino]-1-benzyl-2-hydroxy-propyl}-carbamic acid (3R,3aS,6aR)hexahydro-furo[2,3-b]furan-3-yl ester] | ≤ 0.1 | < 0.001 | – | –
COc1ccc(S(=O)(=O)N(CCC#N)C[C@@H](O)[C@H](Cc2ccccc2)NC(=O)OC2COCOC2)cc1 [Compound 125] | > 1 | < 0.001 | – | –
COc1ccc(S(=O)(=O)N(CCCCC2(C)OCCO2)C[C@@H](O)[C@H](Cc2ccccc2)NC(=O)OC(C)(C)C)cc1 [Compound 201, tert-Butyl N-((1S,2R)-1-benzyl-2-hydroxy-3-[(4-methoxyphenyl)sulfonyl][4-(2-methyl-1,3-dioxolan-2-yl)butyl]aminopropyl)carbamate] | > 1 | 0.001 to 0.01 | – | –
COc1ccc(S(=O)(=O)N(CCCCC2(C)OCCO2)C[C@@H](O)[C@H](Cc2ccccc2)NC(=O)OC(C)(C)C)cc1 [Compound 204, tert-Butyl N-((1S,2R)-1-benzyl-2-hydroxy-3-[(4-methoxyphenyl)sulfonyl][4-(2-methyl-1,3-dioxolan-2-yl)butyl]aminopropyl)carbamate] | – | 0.001 to 0.01 | 0.5 to 1 | –
COc1ccc(S(=O)(=O)N(CCCCC(C)=O)C[C@@H](O)[C@H](Cc2ccccc2)NC(=O)O[C@H]2CCOC2)cc1 [Compound 205, (3S)-Tetrahydro-3-furanyl N-(1S,2R)-1-benzyl-2-hydroxy-3-[[(4-methoxyphenyl)sulfonyl](5-oxohexyl)amino]-propylcarbamate] | 0.5 to 1 | < 0.001 | – | –
CCC(CCC(C)=O)CN(CC(O)[C@H](Cc1ccccc1)NC(=O)OC1CCOC1)S(=O)(=O)c1ccc(OC)cc1 (stereo partly drawn) [Compound 206, (3S)-Tetrahydro-3-furanyl N-((1S,2R)-1-benzyl-3-(2-ethyl-5-oxohexyl)[(4-methoxyphenyl)sulfonyl]amino-2-hydroxypropyl)carbamate] | ≤ 0.1 | < 0.001 | – | –
COc1ccc(S(=O)(=O)N(CC(C)CCC(C)=O)CC(O)[C@H](Cc2ccccc2)NC(=O)OC2CCOC2)cc1 (stereo partly drawn) [Compound 207, (3S)-Tetrahydro-3-furanyl N-(1S, 2R)-1-benzyl-2-hydroxy-3-[[(4-methoxyphenyl)sulfonyl](2-methyl-5-oxohexyl)amino]propylcarbamate] | ≤ 0.1 | < 0.001 | – | –
COc1ccc(S(=O)(=O)N(C[C@@H](O)[C@H](Cc2ccccc2)NC(=O)O[C@H]2CCOC2)CC(C)(C)CCC(C)=O)cc1 [Compound 208, (3S)-Tetrahydro-3-furanyl N-((1S,2R)-1-benzyl-3-(2-,2-dimethyl-5-oxohexyl)[(4-methoxyphenyl)sulfonyl]amino-2-hydroxypropyl)carbamate] | 0.1 to 0.5 | < 0.001 | – | –
COc1ccc(S(=O)(=O)N(C[C@@H](O)[C@H](Cc2ccccc2)NC(=O)O[C@H]2CCOC2)CC(C)(C)CCCC(C)=O)cc1 [Compound 209] | 0.1 to 0.5 | < 0.001 | – | –
COC(=O)NCCCC(C)(C)CN(CC(O)C(Cc1ccccc1)NC(=O)OC1COC2OCCC12)S(=O)(=O)c1ccc(OC)cc1 [Compound 213, (3R,3aS,6aR)hexahydrofuro[2,3-b]furan-3-yl N-((1S,2R)-1-benzyl-2-hydroxy-3-5-[(methoxycarbonyl)amino]-2,2-dimethylpentyl[(4-methoxyphenyl)sulfonyl]aminopropyl)carbamate and (3S,3aR,6aS)hexahydrofuro[2,3-b]furan-3-yl N-((1S,2R)-1-benzyl-2-hydroxy-3-5-[(methoxycarbonyl)amino]-2,2-dimethylpentyl[(4-methoxyphenyl)sulfonyl]aminopropyl)carbamate] | ≤ 0.1 | < 0.001 | – | –
COc1ccc(S(=O)(=O)N(CC(O)C(Cc2ccccc2)NC(=O)OC2COC3OCCC23)CC(C)(C)CCCNS(C)(=O)=O)cc1 [Compound 215, (3R,3aS,6aR)hexahydrofuro[2,3-b]furan-3-yl N-((1S,2R)-1-benzyl-3-2,2-dimethyl-5-[(methylsulfonyl)amino]pentyl[(4-methoxyphenyl)sulfonyl]amino-2-hydroxypropyl)carbamate and (3S,3aR, 6aS)hexahydrofuro[2,3-b]furan-3-yl N-((1s,2R)-1-benzyl-3-2,2-dimethyl-5-[(methylsulfonyl)amino]pentyl[(4-methoxyphenyl)sulfonyl]amino-2-hydroxypropyl)carbamate] | ≤ 0.1 | < 0.001 | – | –
COC(=O)NCCC(C)(C)CN(CC(O)C(Cc1ccccc1)NC(=O)OC1COC2OCCC12)S(=O)(=O)c1ccc(OC)cc1 [Compound 218, (3R,3aS,6aR)hexahydrofuro[2,3-b]furan-3-yl N-((1S,2R)-1-benzyl-2-hydroxy-3-4-[(methoxycarbonyl)amino]-2,2-dimethylbutyl[(4-methoxyphenyl)sulfonyl]aminopropyl)carbamate and (3S,3aR,6aS)hexahydrofuro[2,3-b]furan-3-yl N-((1S,2R)-1-benzyl-2-hydroxy-3-4-[(methoxycarbonyl)amino]-2,2-dimethylbutyl[(4-methoxyphenyl)sulfonyl]aminopropyl)carbamate] | ≤ 0.1 | < 0.001 | – | –
COc1ccc(S(=O)(=O)N(CC(O)C(Cc2ccccc2)NC(=O)OC2COC3OCCC23)CC(C)(C)CCNS(C)(=O)=O)cc1 [Compound 220, (3R,3aS,6aR)hexahydrofuro[2,3-b]furan-3-yl N-((1S,2R)-1-benzyl-3-2,2-dimethyl-4-[(methylsulfonyl)amino]butyl[(4-methoxyphenyl)sulfonyl]amino-2-hydroxypropyl)carbamate and (3S,3aR,6aS)hexahydrofuro[2,3-b]furan-3-yl N-((1S,2R)-1-benzyl-3-2,2-dimethyl-4-[(methylsulfonyl)amino]butyl[(4-methoxyphenyl)sulfonyl]amino-2-hydroxypropyl)carbamate] | ≤ 0.1 | – | – | < 0.001
CNC(=O)OCCC(C)(C)CN(CC(O)[C@H](Cc1ccccc1)NC(=O)OC1COC2OCCC12)S(=O)(=O)c1ccc(OC)cc1 (stereo partly drawn) [Compound 221, (3R,3aS,6aR)-Hexahydrofuro[2,3-b]furan-3-yl N-((1S,2R)-1-benzyl-3-(2,2-dimethyl-4-N′-methylcarbamoyloxybutyl)[(4-methoxyphenyl)sulfonyl]amino-2-hydroxypropyl)carbamate] | ≤ 0.1 | < 0.001 | – | –
COC(=N[N+](=O)[O-])NCCC(C)(C)CN(CC(O)C(Cc1ccccc1)NC(=O)OC1COC2OCCC12)S(=O)(=O)c1ccc(OC)cc1 (stereo not drawn) [Compound 223] | ≤ 0.1 | < 0.001 | – | –
CNC(=O)CNC(=O)NCCCC(C)(C)CN(CC(O)C(Cc1ccccc1)NC(=O)OC1COC2OCCC12)S(=O)(=O)c1ccc(OC)cc1 [Compound 225, (3R,3aS,6aR)hexahydrofuro[2,3-b]furan-3-yl N-(1S,2R)-1-benzyl-2-hydroxy-4-[(4-methoxyphenyl)sulfonyl]-6,6-dimethyl-11,14-dioxo-4,10,12,15-tetraazahexadec-1-ylcarbamate and (3S,3aR,6aS)hexahydrofuro[2,3-b]furan-3-yl N-(1S,2R)-1-benzyl-2-hydroxy-4-[(4-methoxyphenyl)sulfonyl]-6,6-dimethyl-11,14-dioxo-4,10,12,15-tetraazahexadec-1-ylcarbamate] | > 1 | < 0.001 | – | –
CCOC(=O)NCCC(C)(C)CN(CC(O)C(Cc1ccccc1)NC(=O)OC1COC2OCCC12)S(=O)(=O)c1ccc(OC)cc1 [Compound 226, (3R,3aS,6aR)hexahydrofuro[2,3-b]furan-3-yl N-((1S,2R)-1-benzyl-3-4-[(ethoxycarbonyl)amino]-2,2-dimethylbutyl[(4-methoxyphenyl)sulfonyl]amino-2-hydroxypropyl)carbamate and (3S,3aR,6aS)hexahydrofuro[2,3-b]furan-3-yl N-((1S,2R)-1-benzyl-3-4-[(ethoxycarbonyl)amino)-2,2-dimethylbutyl[(4-methoxyphenyl)sulfonyl]amino-2-hydroxypropyl)carbamate] | ≤ 0.1 | < 0.001 | – | –
COc1ccc(S(=O)(=O)N(CC(O)[C@H](Cc2ccccc2)NC(=O)OC2COC3OCCC23)CC(C)(C)CCC(C)=NO)cc1 (stereo partly drawn) [Compound 227, (3R,3aS,6aR)-Hexahydrofuro[2,3-b]furan-3-yl N-((1S,2R)-1-benzyl-3-(2,2-dimethyl-5-hydroxyiminohexyl)[(4-methoxyphenyl)sulfonyl]amino-2-hydroxypropyl)carbamate] | ≤ 0.1 | < 0.001 | – | –
CNC(=O)CNC(=O)NCCC(C)(C)CN(CC(O)C(Cc1ccccc1)NC(=O)OC1COC2OCCC12)S(=O)(=O)c1ccc(OC)cc1 [Compound 228, (3R,3aS,6aR)hexahydrofuro[2,3-b]furan-3-yl N-(1S,2R)-1-benzyl-2-hydroxy-4-[(4-methoxyphenyl)sulfonyl]-6,6-dimethyl-10,13-dioxo-4,9,11,14-tetraazapentadec-1-ylcarbamate and (3S,3aR,6aS)hexahydrofuro[2,3-b]furan-3-yl N-(1S,2R)-1-benzyl-2-hydroxy-4-[(4-methoxyphenyl)sulfonyl]-6,6-dimethyl-10,13-dioxo-4,9,11,14-tetraazapentadec-1-ylcarbamate] | 0.1 to 0.5 | < 0.001 | – | –
CCOC(=O)NCCCC(C)(C)CN(CC(O)C(Cc1ccccc1)NC(=O)OC1COC2OCCC12)S(=O)(=O)c1ccc(OC)cc1 [Compound 230, (3R,3aS,6aR)hexahydrofuro[2,3-b]furan-3-yl N-((1S,2R)-1-benzyl-3-5-[(ethoxycarbonyl)amino]-2,2-dimethylpentyl[(4-methoxyphenyl)sulfonyl]amino-2-hydroxypropyl)carbamate and (3S,3aR,6aS)hexahydrofuro[2,3-b]furan-3-yl N-((1S,2R)-1-benzyl-3-5-[(ethoxycarbonyl)amino]-2,2-dimethylpentyl[(4-methoxyphenyl)sulfonyl]amino-2-hydroxypropyl)carbamate] | ≤ 0.1 | < 0.001 | – | –
